Where two headings read alike, the source gives them in different places.
Biological target: GCN2 (Homo sapiens, UniProt Q9P2K8)
Test: GCN2 enzymatic endpoint assay: phosphorylation of GFP-eIF2α measured by TR-FRET (Lanthascreen)
Assay type: biochemical
Summary of the method: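 2 μM ATP, 80 nM GFP-eIF2α, RT, 90 min; EDTA stop. Tb-anti-phospho antibody TR-FRET read, 520/495 nm ratio.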

[1] = tested as described in Example 77, compound and/or hydrochloride, dihydrochloride or trifluoroacetic acid salt, read-out: IC 50 Activity
[2] = GCN2 biochemical IC50, 4 nM GCN2, 2 μM ATP, 80 nM GFP-eIF2α, 90 min RT, read-out: GCN2 activity

Sequence of GCN2 (Q9P2K8 whole entry): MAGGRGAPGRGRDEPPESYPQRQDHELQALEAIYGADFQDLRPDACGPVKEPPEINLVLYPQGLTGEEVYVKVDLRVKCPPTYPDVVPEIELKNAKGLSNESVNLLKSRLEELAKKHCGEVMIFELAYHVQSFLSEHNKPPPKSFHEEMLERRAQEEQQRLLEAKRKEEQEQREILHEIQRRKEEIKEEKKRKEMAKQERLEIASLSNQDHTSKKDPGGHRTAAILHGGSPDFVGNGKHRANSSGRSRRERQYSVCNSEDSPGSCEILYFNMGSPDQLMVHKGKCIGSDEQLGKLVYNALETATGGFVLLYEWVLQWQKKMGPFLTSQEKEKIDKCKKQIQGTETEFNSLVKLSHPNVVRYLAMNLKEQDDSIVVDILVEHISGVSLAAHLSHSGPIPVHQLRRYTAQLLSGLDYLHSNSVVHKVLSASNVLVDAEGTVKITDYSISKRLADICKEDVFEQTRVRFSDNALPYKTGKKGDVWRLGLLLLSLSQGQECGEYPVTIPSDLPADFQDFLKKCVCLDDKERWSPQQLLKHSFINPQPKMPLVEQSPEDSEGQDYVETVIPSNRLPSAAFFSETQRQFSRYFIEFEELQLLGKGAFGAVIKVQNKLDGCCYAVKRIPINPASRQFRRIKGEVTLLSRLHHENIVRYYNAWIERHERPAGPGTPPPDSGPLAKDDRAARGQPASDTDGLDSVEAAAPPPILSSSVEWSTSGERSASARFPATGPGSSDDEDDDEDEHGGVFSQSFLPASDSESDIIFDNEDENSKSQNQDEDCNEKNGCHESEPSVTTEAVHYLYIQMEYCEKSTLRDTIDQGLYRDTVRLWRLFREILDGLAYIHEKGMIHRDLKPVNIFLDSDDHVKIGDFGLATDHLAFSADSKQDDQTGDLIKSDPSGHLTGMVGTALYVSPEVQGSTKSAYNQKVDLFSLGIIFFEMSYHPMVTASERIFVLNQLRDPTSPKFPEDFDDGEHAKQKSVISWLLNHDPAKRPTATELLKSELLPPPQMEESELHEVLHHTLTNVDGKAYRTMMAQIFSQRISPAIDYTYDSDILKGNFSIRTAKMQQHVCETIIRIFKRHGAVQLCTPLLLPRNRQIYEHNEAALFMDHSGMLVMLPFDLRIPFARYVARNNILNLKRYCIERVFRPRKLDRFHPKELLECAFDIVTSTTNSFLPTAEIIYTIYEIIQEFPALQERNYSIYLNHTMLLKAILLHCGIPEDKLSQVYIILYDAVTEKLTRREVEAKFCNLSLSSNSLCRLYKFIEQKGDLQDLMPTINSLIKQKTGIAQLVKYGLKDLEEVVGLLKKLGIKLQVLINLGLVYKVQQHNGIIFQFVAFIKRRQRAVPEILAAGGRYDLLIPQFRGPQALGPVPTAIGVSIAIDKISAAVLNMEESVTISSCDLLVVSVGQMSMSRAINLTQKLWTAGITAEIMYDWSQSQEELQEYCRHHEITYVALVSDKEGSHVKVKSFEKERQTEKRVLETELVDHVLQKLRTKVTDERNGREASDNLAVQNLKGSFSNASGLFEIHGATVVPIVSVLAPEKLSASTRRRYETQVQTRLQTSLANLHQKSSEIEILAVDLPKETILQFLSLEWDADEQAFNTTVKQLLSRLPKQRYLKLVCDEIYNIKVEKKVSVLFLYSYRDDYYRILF

Row | SMILES | IC50 [1] [nM] | IC50 [2] [nM]
1 | CP(C)(=O)[C@@H]1CC[C@@H](Nc2ncc3c(Br)nn(-c4cc(C5CCNC5)c5ncccc5c4)c3n2)C1 (stereo partly drawn) [3-bromo-N-[(1R,3R)-3-dimethylphosphoryl-cyclopentyl]-1-(8-pyrrolidin-3-yl-6-quinolyl) pyrazolo[3,4-d]pyrimidin-6-amine] | 25 to 200 | 
2 | Fc1cc(-n2nc(Br)c3cnc(NC4COC4)nc32)cc2cccnc12 [3-bromo-1-(8-fluoro-6-quinolyl)-N-(oxetan-3-yl)pyrazolo[3,4-d]pyrimidin-6-amine] | 25 to 200 | 
3 | CNC(=O)[C@]1(C)CC[C@@H](Nc2ncc3c(Br)nn(-c4cc([C@H](C)N)c5nccnc5c4)c3n2)C1 [(1R,3R)-3-[[1-[8-[(1S)-1-aminoethyl]quinoxalin-6-yl]-3-bromo-pyrazolo [3,4-d]pyrimidin-6-yl]amino]-N,1-dimethyl-cyclopentanecarboxamide] | 25 to 200 | 
4 | CNC(=O)[C@]1(C)CC[C@@H](Nc2ncc3c(Br)nn(-c4ccc(-c5ncco5)c([C@@H](C)C#N)c4)c3n2)C1 [(1R,3R)-3-[[3-bromo-1-[3-[(1R)-1-cyanoethyl]-4-oxazol-2-yl-phenyl]pyrazolo[3,4-d]pyrimidin-6-yl]amino]-N,1-dimethyl-cyclopentane-carboxamide] | 25 to 200 | 
5 | CNC(=O)[C@]1(C)CC[C@@H](Nc2ncc3c(Br)nn(-c4ccc(-c5nnc(C)s5)c(CC(C)O)c4)c3n2)C1 (stereo partly drawn) [(1R,3R)-3-[[3-bromo-1-[3-(2-hydroxypropyl)-4-(5-methyl-1,3,4-thiadiazol-2-yl)phenyl]pyrazolo[3,4-d]pyrimidin-6-yl]amino]-N,1-dimethyl-cyclopentanecarboxamide] | 25 to 200 | 
6 | N#Cc1cc(-n2nc(Br)c3cnc(N[C@@H]4CC[C@@H](C(=O)N5CC(N6CCC(F)(F)C6)C5)C4)nc32)cc2cccnc12 [6-(3-bromo-6-(((1R,3R)-3-(3-(3,3-difluoro-pyrrolidin-1-yl)azetidine-1-carbonyl)cyclo-pentyl)amino)-1H-pyrazolo[3,4-d]pyrimidin-1-yl)quinoline-8-carbonitrile] | 25 to 200 | 
7 | CN(C)C(=O)C1(NC(=O)[C@@H]2CC[C@@H](Nc3ncc4c(Br)nn(-c5cc(F)c6ncccc6c5)c4n3)C2)CC1 [(1R,3R)-3-[[3-bromo-1-(8-fluoro-6-quinolyl)pyrazolo[3,4-d]pyrimidin-6-yl]amino]-N-[1-(dimethylcarbamoyl)cyclopropyl]cyclo-pentanecarboxamide] | 25 to 200 | 
8 | CNC(=O)[C@]1(C)CC[C@@H](Nc2ncc3c(Br)nn(-c4ccc5c(c4)CCC(=O)N5CC#N)c3n2)C1 [(1R,3R)-3-[[3-bromo-1-[1-(cyano-methyl)-2-oxo-3,4-dihydroquinolin-6-yl]pyrazolo[3,4-d]pyrimidin-6-yl]amino]-N,1-dimethyl-cyclopentane-carboxamide] | 25 to 200 | 
9 | CNC(=O)[C@@H]1CC[C@@H](Nc2ncc3c(Br)nn(-c4cc(OC(F)(F)F)c5ncccc5c4)c3n2)C1 [(1R,3R)-3-((3-bromo-1-(8-(trifluoro-methoxy)quinolin-6-yl)-1H-pyrazolo [3,4-d]pyrimidin-6-yl)amino)-N-methylcyclopentane-1-carboxamide] | 25 to 200 | 
10 | CNC(=O)[C@]1(C)CC[C@@H](Nc2ncc3c(Br)nn(-c4ccc5c(c4)CN(C=O)CC5)c3n2)C1 [(1R,3R)-3-[[3-bromo-1-(2-formyl-3,4-dihydro-1H-isoquinolin-7-yl)pyrazolo [3,4-d]pyrimidin-6-yl]amino]-N,1-dimethyl-cyclopentanecarboxamide] | 25 to 200 | 
11 | CNC(=O)[C@]1(C)CC[C@@H](Nc2ncc3c(Br)nn(-c4ccc(-c5ncco5)c(CCN)c4)c3n2)C1 [(1R,3R)-3-[[1-[3-(2-aminoethyl)-4-oxazol-2-yl-phenyl]-3-bromo-pyrazolo[3,4-d]pyrimidin-6-yl]amino]-N,1-dimethyl-cyclopentanecarboxamide] | 25 to 200 | 
12 | COCCNC(=O)[C@@H]1CC[C@@H](Nc2ncc3c(Br)nn(-c4cncc(OC)c4)c3n2)C1 [(1R,3R)-3-((3-bromo-1-(5-methoxypyridin-3-yl)-1H-pyrazolo[3,4-d]pyrimidin-6-yl)amino)-N-(2-methoxyethyl)cyclopentane-1-carboxamide] | 500 to 1000 | 

Next, values leading:

Row | IC50 [1] [nM] | IC50 [2] [nM] | SMILES
13 |  | < 25 | Cc1nnc(-c2ccc(-n3nc(Br)c4cnc(N[C@@H]5CC[C@](C(=O)N6CCNCC6)(C(C)C)C5)nc43)cc2CCC(N)=O)s1 [Example 28, 3-(5-(3-bromo-6-(((1R,3R)-3-isopropyl-3-(piperazine-1-carbonyl)cyclopentyl)amino)-1H-pyrazolo[3,4-d]pyrimidin-1-yl)-2-(5-methyl-1,3,4-thiadiazol-2-yl)phenyl)propanamide; 2,2,2-trifluoroacetic acid]
14 | 25 to 200 |  | CNC(=O)[C@@H]1CC[C@@H](Nc2ncc3c(Br)nn(-c4ccc(-c5nnc(C)o5)cc4)c3n2)C1 [(1R,3R)-3-[[3-bromo-1-[4-(5-methyl-1,3,4-oxadiazol-2-yl)phenyl]pyrazolo[3,4-d]pyrimidin-6-yl]amino]-N-methyl-cyclopentanecarboxamide]
15 |  | < 25 | CNC(=O)[C@]1(C)CC[C@@H](Nc2ncc3c(Br)nn(-c4cc([C@@H](C)N)c5nccnc5c4)c3n2)C1 [Example 34, (1R,3R)-3-((1-(8-((R)-1-aminoethyl)quinoxalin-6-yl)-3-bromo-1H-pyrazolo[3,4-d]pyrimidin-6-yl)amino)-N,1-dimethylcyclopentane-1-carboxamide; 2,2,2-trifluoroacetic acid]
16 | 25 to 200 |  | Cc1cn2c(n1)CN(C(=O)[C@@H]1CC[C@@H](Nc3ncc4c(Br)nn(-c5cc(F)c6ncccc6c5)c4n3)C1)CC2 [[(1R,3R)-3-[[3-bromo-1-(8-fluoro-6-quinolyl)pyrazolo[3,4-d]pyrimidin-6-yl]amino]cyclo-pentyl]-(2-methyl-6,8-dihydro-5H-imidazo [1,2-a]pyrazin-7-yl)methanone]
17 | 25 to 200 |  | CNC(=O)C1(C)CC[C@@H](Nc2ncc3c(Br)nn(-c4cc(F)cc(CO)c4)c3n2)C1 (stereo partly drawn) [(3R)-3-[[3-bromo-1-[3-fluoro-5-(hydroxymethyl)phenyl]pyrazolo[3,4-d]pyrimidin-6-yl]amino]-N,1-dimethyl-cyclopentanecarboxamide]
18 |  | 25 to 200 | Brc1nn(-c2ccc3ncccc3c2)c2nc(N[C@@H]3CC[C@@H](c4ncc[nH]4)C3)ncc12 [Example 25, N-((1R,3R)-3-(1H-imidazol-2-yl)cyclopentyl)-3-bromo-1-(quinolin-6-yl)-1H-pyrazolo[3,4-d]pyrimidin-6-amine]
19 | < 25 |  | CNC(=O)[C@]1(C)CC[C@@H](Nc2ncc3c(Br)nn(-c4cc(/C=C/S(C)(=O)=O)c5ncccc5c4)c3n2)C1 [(1R,3R)-3-[[3-bromo-1-[8-[(E)-2-methyl-sulfonylvinyl]-6-quinolyl]pyrazolo[3,4-d]pyrimidin-6-yl]amino]-N,1-dimethyl-cyclopentanecarboxamide]
20 | 25 to 200 |  | CNC(=O)[C@@H]1CC[C@@H](Nc2ncc3c(Br)nn(-c4ccc(-c5cnn(CCOC)c5)cc4)c3n2)C1 [(1R,3R)-3-[[3-bromo-1-[4-[1-(2-methoxy-ethyl)pyrazol-4-yl]phenyl]pyrazolo[3,4-d]pyrimidin-6-yl]amino]-N-methyl-cyclopentanecarboxamide]
21 | 25 to 200 |  | CNC(=O)[C@@]1(C)CC[C@@H](Nc2ncc3c(Br)nn(-c4ccc(OCCO)cc4)c3n2)C1 [(1S,3R)-3-[[3-bromo-1-[4-(2-hydroxy-ethoxy)phenyl]pyrazolo[3,4-d]pyrimidin-6-yl]amino]-N,1-dimethyl-cyclopentane-carboxamide]
